{"source": "patent US20240148821A1", "about": "“PHARMACEUTICAL USE OF CYCLIC PEPTIDE COMPOUND” (CHUGAI SEIYAKU KABUSHIKI KAISHA, priority 2021, published 2024)", "note": "Numbered stars: 1 amine (or outer) side, 2 acyl side, 3 side chain; on linkers, the order of the positions; unused ones are H or OH. Bridge positions count the residues as written; N and C are the ends. Square brackets hold non-standard residues; d marks the D form. Peptide text beside a SMILES is read from it. * marks the point of attachment. hPhe(3,5-F2-4-CF3) = N[C@@H](CCc1cc(F)c(C(F)(F)F)c(F)c1)C(=O)O; hPhe(3-Cl-4-CF3) = N[C@@H](CCc1ccc(C(F)(F)F)c(Cl)c1)C(=O)O; NMePhe(4-CF3) = CN[C@@H](Cc1ccc(C(F)(F)F)cc1)C(=O)O; Thiomorpholino(1,1-dioxo) = O=S1(=O)CCN(*)CC1; NMeAbu(4,4,4-F3) = CN[C@@H](CC(F)(F)F)C(=O)O; NMePhe(4-Me) = CN[C@@H](Cc1ccc(C)cc1)C(=O)O; X109 = O=C([C@H](Cc1cccc(I)c1F)N[*:1])[*:2]; X128 = O=C([C@H](Cc1cccc(F)c1F)N[*:1])[*:2]; Phe(3-I) = N[C@@H](Cc1cccc(I)c1)C(=O)O; Pro(4,4-F2) = O=C(O)[C@@H]1CC(F)(F)CN1; NMeY = CN[C@@H](Cc1ccc(O)cc1)C(=O)O; NMeCha = CN[C@@H](CC1CCCCC1)C(=O)O; NMeChg = CN[C@H](C(=O)O)C1CCCCC1; NMeI = CC[C@H](C)[C@H](NC)C(=O)O; NMeD = CN[C@@H](CC(=O)O)C(=O)O; NMeL = CN[C@@H](CC(C)C)C(=O)O; Oxazolidin(3-yl) = C1CN(*)CO1; NMeV = CN[C@H](C(=O)O)C(C)C; d(β3hA) = C[C@@H](N)CC(=O)O; NMeAbu = CC[C@H](NC)C(=O)O; NMeA = CN[C@@H](C)C(=O)O; NMeAib = CNC(C)(C)C(=O)O; Nle = CCCC[C@H](N)C(=O)O; Piperidide = C1CCN(*)CC1; Pra = C#CC[C@H](N)C(=O)O; Pyrrolidide = C1CCN(*)C1; Ac5c = NC1(C(=O)O)CCCC1; Aze = O=C(O)[C@@H]1CCN1; Sar = CNCC(=O)O", "data": [{"tested_on": "Human pancreatic cancer cell line AsPC-1 (G12D mutation Kras)", "assay": "AsPC-1 cell growth inhibition (AsPC-1 CGI)", "type": "cell-based", "settings": "read-out: AsPC-1 cell growth inhibition, 50% growth inhibitory concentration (IC50 value); 96 hours, CellTiter-Glo, values classified in ranges", "units": {"IC50": "nM"}, "experimental": "Test compounds were serially dilated with dimethyl sulfoxide, and 200 nL was then dispensed to a U-bottom 96-well plate using Labcyte Echo. […] The cell suspension was dispensed to a. plate containing a test compound at 100 μL per well and incubated at 37° C. in a 5% carbon dioxide gas incubator. 96 hours later, 80 μL of CellTiter-Glo (Promega) was added to each well and fluorescence was measured.", "values": [{"smiles": "CC[C@H](C)[C@@H]1NC(=O)[C@H](CC(C)C)N(C)C(=O)C[C@@H](C(=O)N2CCS(=O)(=O)CC2)N(C)C(=O)[C@H](C(C)C)N(C)C(=O)C2(CCCC2)NC(=O)[C@@H]2CCCN2C(=O)[C@H](CCc2ccc(C(F)(F)F)c(Cl)c2)NC(=O)CN(C)C(=O)[C@H](CC2CCCCC2)N(C)C(=O)[C@@H]2CCN2C(=O)[C@H](C)N(C)C1=O", "note": "[Compound 1238] ([NMeL]I[NMeA][Aze][NMeCha][Sar][hPhe(3-Cl-4-CF3)]P[Ac5c][NMeV][NMeD]-{Thiomorpholino(1,1-dioxo)}; lactam N-11)", "IC50": "> 500"}, {"smiles": "CC[C@H](C)[C@@H]1NC(=O)[C@H](CC(C)C)N(C)C(=O)C[C@@H](C)NC(=O)[C@H](C)N(C)C(=O)C2(CCCC2)NC(=O)[C@@H]2CCCN2C(=O)[C@H](CCc2ccc(C(F)(F)F)c(Cl)c2)NC(=O)CN(C)C(=O)[C@H](Cc2ccc(C)cc2)N(C)C(=O)[C@@H]2CCN2C(=O)[C@H](C)N(C)C1=O", "note": "[Compound 1239] (cyclo([Ac5c][NMeA][d(β3hA)][NMeL]I[NMeA][Aze][NMePhe(4-Me)][Sar][hPhe(3-Cl-4-CF3)]P))", "IC50": "> 500"}, {"smiles": "CC[C@H](C)[C@@H]1NC(=O)[C@H](CC(C)C)N(C)C(=O)C[C@@H](C(=O)N2CCCCC2)N(C)C(=O)[C@H](C(C)C)N(C)C(=O)C2(CCCC2)NC(=O)[C@H](C)N(C)C(=O)[C@H](CCc2ccc(C(F)(F)F)c(Cl)c2)NC(=O)CN(C)C(=O)[C@H](CC2CCCCC2)N(C)C(=O)[C@@H]2CCN2C(=O)[C@H](C)N(C)C1=O", "note": "[Compound 1243] ([NMeL]I[NMeA][Aze][NMeCha][Sar][hPhe(3-Cl-4-CF3)][NMeA][Ac5c][NMeV][NMeD]-Piperidide; lactam N-11)", "IC50": "> 500"}, {"smiles": "CC[C@H](C)[C@@H]1NC(=O)[C@H](CC(F)(F)F)N(C)C(=O)C[C@@H](C(=O)N2CCCC2)N(C)C(=O)[C@H](C2CCCCC2)N(C)C(=O)C2(CCCC2)NC(=O)[C@@H]2CCCN2C(=O)[C@H](CCc2cc(F)c(C(F)(F)F)c(F)c2)NC(=O)CN(C)C(=O)[C@H](Cc2ccc(C(F)(F)F)cc2)N(C)C(=O)CN(C)C(=O)CN(C)C1=O", "note": "[Compound 1244] ([NMeAbu(4,4,4-F3)]I[Sar][Sar][NMePhe(4-CF3)][Sar][hPhe(3,5-F2-4-CF3)]P[Ac5c][NMeChg][NMeD]-Pyrrolidide; lactam N-11)", "IC50": "≤ 20"}, {"smiles": "CC[C@H](C)[C@@H]1NC(=O)[C@H](CC(F)(F)F)N(C)C(=O)C[C@@H](C(=O)N2CCCC2)N(C)C(=O)[C@H](C2CCCCC2)N(C)C(=O)C2(CCCC2)NC(=O)[C@@H]2CC(F)(F)CN2C(=O)[C@H](CCc2ccc(C(F)(F)F)c(Cl)c2)NC(=O)CN(C)C(=O)[C@H](Cc2ccc(C)cc2)N(C)C(=O)CN(C)C(=O)CN(C)C1=O", "note": "[Compound 1245] ([NMeAbu(4,4,4-F3)]I[Sar][Sar][NMePhe(4-Me)][Sar][hPhe(3-Cl-4-CF3)][Pro(4,4-F2)][Ac5c][NMeChg][NMeD]-Pyrrolidide; lactam N-11)", "IC50": "≤ 20"}, {"smiles": "C#CC[C@@H]1NC(=O)[C@H](Cc2cccc(I)c2)NC(=O)CN(C)C(=O)[C@H](Cc2ccc(OC)cc2)N(C)C(=O)[C@@H]2CCN2C(=O)CN(C)C(=O)[C@H]([C@@H](C)CC)NC(=O)[C@H](CC(C)C)N(C)C(=O)C[C@@H](C(=O)N2CCCCC2)N(C)C(=O)[C@H](CC(C)C)NC(=O)C(C)(C)N(C)C1=O", "note": "[Compound 1246] ([NMeL]I[Sar][Aze][NMeY](Me)[Sar][Phe(3-I)][Pra][NMeAib]L[NMeD]-Piperidide; lactam N-11)", "IC50": "> 500"}, {"smiles": "CC[C@H](C)[C@@H]1NC(=O)[C@H](CC(C)C)N(C)C(=O)C[C@@H](C(=O)N2CCOC2)NC(=O)[C@H]([C@@H](C)CC)N(C)C(=O)C2(CCCC2)NC(=O)[C@@H]2CCCN2C(=O)[C@H](CCc2ccc(C(F)(F)F)c(Cl)c2)NC(=O)CN(C)C(=O)[C@H](CC2CCCCC2)N(C)C(=O)CN(C)C(=O)CN(C)C1=O", "note": "[Compound 1247] ([NMeL]I[Sar][Sar][NMeCha][Sar][hPhe(3-Cl-4-CF3)]P[Ac5c][NMeI]D-{Oxazolidin(3-yl)}; lactam N-11)", "IC50": "> 500"}, {"smiles": "CCCC[C@@H]1NC(=O)[C@H](Cc2cccc(I)c2F)NC(=O)CN(C)C(=O)[C@H](Cc2ccc(OC)cc2)N(C)C(=O)[C@@H]2CCN2C(=O)[C@H](C)N(C)C(=O)[C@H]([C@@H](C)CC)NC(=O)[C@H](CC)N(C)C(=O)C[C@@H](C(=O)N2CCCCC2)N(C)C(=O)[C@H](CC(C)C)NC(=O)C(C)(C)N(C)C1=O", "note": "[Compound 1249] ([NMeAbu]I[NMeA][Aze][NMeY](Me)[Sar][X109][Nle][NMeAib]L[NMeD]-Piperidide; lactam N-11)", "IC50": "> 500"}, {"smiles": "CCCC[C@@H]1NC(=O)[C@H](Cc2cccc(F)c2F)NC(=O)CN(C)C(=O)[C@H](Cc2ccc(OC)cc2)N(C)C(=O)[C@@H]2CCN2C(=O)[C@H](C)N(C)C(=O)[C@H]([C@@H](C)CC)NC(=O)[C@H](CC)N(C)C(=O)C[C@@H](C(=O)N2CCCCC2)N(C)C(=O)[C@H](CC(C)C)NC(=O)C(C)(C)N(C)C1=O", "note": "[Compound 1256] ([NMeAbu]I[NMeA][Aze][NMeY](Me)[Sar][X128][Nle][NMeAib]L[NMeD]-Piperidide; lactam N-11)", "IC50": "> 500"}]}]}
